The source of these data is US9447132B2 (priority 2013, dated 2016).

Marks after values point to notes of the source that are not given here.

Data set [1] can be described thus: Buffer stability (stability of the compounds in the absence of cells). The class given is physicochemical. The conditions noted are these: 24 hr.
In data set [2] the test system is HCV replicon. As to the kind of experiment: Predicted EC50 against HCV replicon in primary human hepatocytes. The conditions noted are these: Hepatitis C virus, Hepatocyte. The class given is cell-based.
In data set [3] the test system is human liver hepatocytes. The data set can be described thus: Triphosphate levels (Formula IV, GS-7977-TP) in human hepatocytes. The class given is in vitro ADME. The following applies: for time at which peak levels were obtained: 5 μM parent, 48 hours of incubation. As for the experimental part:
[…] Cells were washed twice with cold PBS.
Supernatants were removed and analyzed by LC-MS/MS. […] Samples were centrifuged at 3000 rpm for 15 minutes. Supernatants were removed and analyzed by LC-MS/MS.

The subject of data set [4] is primary hepatocytes. As to the kind of experiment: Formula IV concentration from Formula II dosing in primary hepatocytes. The class given is in vitro ADME, human. An excerpt: The general methods of Example 13 were used to determine compound concentrations.
The subject of data set [5] is human liver hepatocyte. The data set can be described thus: Half-life of active triphosphate in human hepatocytes. The class given is in vitro ADME. The conditions noted are these: for t1/2 (hr): Human hepatocytes, parenthesis = 95% confidence interval. As for the experimental part:
(§1) Human hepatocyte cells used for half-life determinations were human liver hepatocyte 12-well format cells and were seeded at 0.67 million cells per well. Canine hepatocyte cells used for half-life determinations were beagle dog liver hepatocyte 12-well format cells and were seeded at 0.67 million cells per well. Monkey hepatocyte cells used for half-life determinations were Cynomolgus monkey liver hepatocyte 12-well format cells, and were seeded at 0.9 million cells per well. Rat hepatocyte cells for half-life determinations were Sprague-Dawley (SD) rat liver hepatocyte 12-well format cells, and were seeded at 0.67 million cells per well. All cells were obtained from Life Technologies.

For data set [6], the system named is beagle dog liver hepatocyte. As to the kind of experiment: Half-life of active triphosphate in dog hepatocytes. The class given is in vitro ADME. The following applies: parenthesis = 95% confidence interval. As for the experimental part: as §1
Data set [7] has as its system Cynomolgus monkey liver hepatocyte. As to the kind of experiment: Half-life of active triphosphate in monkey hepatocytes. The class given is in vitro ADME. The conditions noted are these: parenthesis = 95% confidence interval. As for the experimental part: as §1
Data set [8] has as its system Sprague-Dawley (SD) rat liver hepatocyte. The data set can be described thus: Half-life of active triphosphate in rat hepatocytes. The class given is in vitro ADME. The following applies: parenthesis = 95% confidence interval. As for the experimental part: as §1
For data set [9], the system named is hepatocytes (human, dog, monkey and rat). As to the kind of experiment: Half-lives of active triphosphate in hepatocytes from four species. The conditions noted are these: across hepatocytes from four species (human, dog, monkey, rat). The class given is in vitro ADME. As for the experimental part:
as §1

The test system of data set [10] is HCV genotype 1, 2 or 3. The following applies: once-daily 300 mg for seven days, treatment naïve patients; cited from earlier work.
Data set [11] concerns HCV. The following applies: several large clinical trials; cited from earlier work.
Data set [12] relates to HCV genotype 1. The conditions noted are these: cited from earlier work.
Where [13] appears, read: 2 hr incubation with 5 μM Formula II.
Where [14] appears, read: 4 hr incubation with 5 μM Formula II.
Where [15] appears, read: 8 hr incubation with 5 μM Formula II.
Where [16] appears, read: 25 hr incubation with 5 μM Formula II.
Setting [17] is: 48 hr incubation with 5 μM Formula II.

Take `[2H]c1cn([C@@H]2O[C@H](C([2H])([2H])OP(=O)(N[C@@H](C)C(=O)OC(C)C)Oc3ccccc3)[C@@H](O)[C@@]2(C)O)c(=O)[nH]c1=O` (stereo partly drawn) [Formula II]: the “Buffer Stability Parent T24 hr 37° C.” value in data set [1] (Table 1) and in data set [1] (Table 2) was 97 each time. Further, the EC50 in [2] is 6.25 to 10 nM.

With `C[C@]1(O)C(n2ccc(=O)[nH]c2=O)OC(COP(=O)(O)OP(=O)(O)OP(=O)(O)O)[C@H]1O` (stereo partly drawn) [Formula IV], in data set [3] (human hepatocytes), the “time at which peak levels were obtained” value is above 48 h. Also, the “Formula IV (pmol/million cells) rep 1” value in data set [3] (setting [13]) is reported as 72.1 pmol/million cells; in data set [3] (setting [14]) it was 130 pmol/million cells; in [3] (setting [15]), 218 pmol/million cells; in [3] (setting [16]), 506 pmol/million cells; in [3] (setting [17]), 619 pmol/million cells. In addition, the “Formula IV (pmol/million cells) rep 2” value is reported as 71.5 pmol/million cells in data set [3] (setting [13]); 129 pmol/million cells in data set [3] (setting [14]); 217 pmol/million cells in data set [3] (setting [15]); 465 pmol/million cells in data set [3] (setting [16]); 581 pmol/million cells in [3] (setting [17]). The “Formula IV (pmol/million cells) rep 3” value in data set [3] (setting [13]) turned out to be 67.9 pmol/million cells; in data set [3] (setting [14]), 129 pmol/million cells; in data set [3] (setting [15]), 236 pmol/million cells; in [3] (setting [16]), 488 pmol/million cells; in data set [3] (setting [17]) it was 575 pmol/million cells. For the same compound, the “Formula IV (pmol/million cells) Mean+StDev” value in [3] (setting [16]) was determined as 486 pmol/million cells. In addition, the “Formula IV concentration higher than in Huh-luc/neo cells” value in data set [4] (50 nM Formula II, primary hepatocytes vs Huh-luc/neo cells) is 5- to 8 fold. Moreover, in [4] (Formula II at 50 nM, primary hepatocytes, 24 hours), the “level of Formula IV” value is 9.2-16.2 pmol/million cells. Also, the “t1/2 (hr)” value is 27.6 (26.0-29.4)^a hr in data set [5], 29.6 (22.0-45.4) hr in data set [6], 14.5 (11.8-18.9) hr in data set [7] and 10.2 (8.6-12.5) hr in data set [8]. Besides, the half-life in [5] (human hepatocytes) is given as above 24 h. In data set [9], this compound registered a half-lives range of 10 to 30 h.

As to `C[C@@]1(F)[C@H](O)[C@@H](COP(=O)(O)OP(=O)(O)OP(=O)(O)O)O[C@H]1n1ccc(=O)[nH]c1=O` [GS-7977-TP, reference compound], in data set [3] (human hepatocytes), the “time at which peak levels were obtained” value is 24 h. In addition, in data set [3] (over a 48 hour period, 5 μM, human hepatocytes), the “intracellular conversion to triphosphate, greater than that of Formula IV from Formula II” value stood at 2 fold. The “t1/2 (hr)” value in data set [5] is 22.6 (21.5-23.9) hr; in data set [6] it was 17.7 (15.0-21.5) hr; in data set [7] it was 9.3 (7.9-11.4) hr; in data set [8], 7.6 (6.4-9.3) hr. In addition, the half-lives range in [9] fell in the range of 8 to 23 h.

In the case of `CC(C)OC(=O)[C@@H](C)N[P@@](=O)(OC[C@H]1O[C@@H](n2ccc(=O)[nH]c2=O)[C@](C)(Cl)[C@@H]1O)Oc1ccccc1` [IDX21437], the “mean maximum reduction in viral load” value in [10] is listed as 4.2-4.3 log 10 IU/mL.

Turning to `CC(C)OC(=O)[C@H](C)N[P@](=O)(OC[C@H]1O[C@@H](n2ccc(=O)[nH]c2=O)[C@@](C)(F)C1O)Oc1ccccc1` (stereo partly drawn) [Sovaldi, Sofosbuvir], the “sustained viral response (SVR) of twelve weeks, trial participants” value in data set [11] is on record as 50-90%.

For the compound `CC(C)OC(=O)[C@H](C)NP(=S)(OC[C@H]1O[C@@H](n2ccc(=O)[nH]c2=O)[C@](C)(O)[C@@H]1O)Oc1ccccc1` (stereo partly drawn) [VX-135], the “completion of treatment rate (SVR4)” value in [12] (eleven patients who completed 12 weeks of treatment, with daclatasvir) is 91%. The “sustained viral response rate four weeks after completion of treatment (SVR4)” value in [12] (intent-to-treat, treatment-naïve genotype 1, 200 mg VX-135 in combination with daclatasvir) is 83%.
